In brackets after ≈: the same amount, converted by molar mass. Several values for one entry are separate records, joined by “and”; a condition that tells them apart may be missing. Equal entries are not always repeated. Where two headings read alike, the source gives them in different places.
How the values were obtained:
[1] = test system: ras-transformed human bronchial epithelial cells (TBE); test: Selective cytotoxicity microculture assay, ras-transformed bronchial epithelial cells; format: cell-based
[2] = biological target: T1, 50:50 mixture of recombinant mouse PKCα and mouse PKCβ2; test: Protein Kinase C (PKC) screening assay; format: biochemical; details: Inhibition of Protein Kinase C
T1 construct: The enzymes are expressed in Sf9 insect cells from recombinant baculovirus and partially purified on DEAE-cellulose and Sephacryl 200 gel filtration
Source text: The Protein Kinase C (PKC) screening assay utilized in the following experiments is similar to standard PKC assays used by many investigators. Its primary features are that 1) the assay utilizes a 50:50 mixture of recombinant mouse PKCα and mouse PKCβ2; 2) employs histone as phosphate-accepting substrate; and 3) the PKC enzymatic activity is activated with phosphatidylserine, TPA and low concentration of calcium, so that both calcium and TPA are somewhat limiting for the extent of activation. In this manner the assay is sensitive to inhibitors of PKC activation. A more detailed description of the assay is provided in the following paragraphs.
The recombinant PKC formulation is a mixture (equal parts by activity) of mouse PKCα and mouse PKCβ2. The enzymes are expressed in Sf9 insect cells from recombinant baculovirus and partially purified on DEAE-cellulose and Sephacryl 200 gel filtration. Sufficient PKC is added to each reaction to provide approximately 4 pmols phosphate transferred in 30 minute (per total reaction.) The reaction is linear over the time when 4 pmols of phosphate is transferred and the reaction remains linear well beyond this time frame.
The PKC screening assay is performed in 96 well polystyrene U bottom micro titer plates, in a total reaction volume of 50 ul. Solution manipulations are performed during the assay utilize a Rainin, motorized EDP-plus M8 eight-channel micropipettor.
In some cases 50% DMSO:water, water, or methanol is substituted (if essential) for the solvent. At least 25 μl of the highest concentration sample to be assayed is transferred to a well in a 96 well U-bottom polystyrene assay plate. Serial 5-fold or 10-fold dilutions (depending on the dose-range desired) are made using the EDP-plus M8 eight-channel pipettor in dilute mode and mixing by repipetting. Using the 8-channel pipettor, 2 μl of each dilution is transferred to the appropriate wells of the plate(s) to be used for each assay. Duplicate assays are performed for each dose, with each assay, allowing six wells (half the row) for three-dose assays, or 12 wells (the whole row) for six-dose assays. In general, extracts and fractions are assayed at three doses: 400, 40 an 4 ug/ml, while pure compounds are tested at six doses: 400, 80, 16, 3.2, 0.64, 0.128 ([…]).

[3] = test system: human renal carcinoma cells (A-498); test: Selective cytotoxicity microculture assay, human renal carcinoma
[4] = as above; details: human, SCI (selectively cytotoxicity index), GI50 (RPTEC)/GI50 (A-498)
[5] = test system: normal human renal cells (RPTEC); test: Selective cytotoxicity microculture assay, normal human renal cells; format: cell-based
[6] = Homo sapiens, Epithelial cell, read-out: GI50
[7] = Homo sapiens, A498, A-498 human renal carcinoma

OCc1ccc(-c2ccc(-c3ccc[se]3)[se]2)[se]1 [compound 675246]
GI50 [1]: 0.002 µg/mL (≈ 4.77 nM) | GI50 [1, 6]: 0.003 µg/mL (≈ 7.16 nM) | IC50 [2]: 3 × 10^0 μg/ml | GI50 [3, 7]: 0.003 ng/mL (≈ 0.00716 nM) | selectivity ratio [4]: > 1000

OCc1ccc(-c2ccc(-c3ccc(CO)[se]3)s2)[se]1 [compound 676632]
IC50 [2]: 50 µg/mL (≈ 124000 nM) | GI50 [5]: 2 ng/mL and 0.3 ng/mL | GI50 ([3]; A-498 human renal carcinoma): 0.0002 ng/mL (≈ 0.000497 nM) | GI50 [3, 7]: 0.0003 ng/mL (≈ 0.000746 nM) | selectivity ratio [4]: > 1000

OCc1ccc(-c2ccc(-c3ccc[se]3)s2)[se]1 [compound 676631]
IC50 [2]: 2 × 10^0 μg/ml

OCc1ccc(-c2ccc(-c3ccc(CO)s3)[se]2)s1 [compound 675343]
IC50 [2]: 30 µg/mL (≈ 84400 nM)

OCc1ccc(-c2ccc(-c3ccc(CO)[se]3)[se]2)[se]1 [compound 675247]
GI50 [1]: 20 µg/mL (≈ 44500 nM) | GI50 [1, 6]: 30 µg/mL (≈ 66800 nM) | IC50 [2]: 10 µg/mL (≈ 22300 nM) | selectivity ratio [4]: > 1000

— patent US20040063662A1, “Selenophene anti-tumor agents” (priority 1996, published 2004)
